Measured values reported in patent US20250099420A1, “SMALL MOLECULE MODULATORS OF GPR139 COMPLEX” (University of Florida Research Foundation, Incorporated, priority 2022, published 2025).
Read-outs that look alike come from different tables or passages of the source. Each block holds one compound with its values, some of them ahead of it.

How the values were obtained:
parental HEK cells = experiment: HEK parental Agonist Counterscreen Assay (non-transfected cells); format: cell-based; conditions: for Averaged Max % Response (±St. Dev.): activity relative to known control
Source text: The high control for the agonist counterscreen was Forskolin not acetylcholine.

GPR139 = biological target: T1, GPR139 (Homo sapiens, UniProt Q6DWJ6); experiment: GPR139 Agonist titration / agonist counterscreen assay (calcium detection, HEK-GPR139 cells); format: cell-based; design: expressed in transfected cells; host or cells: HEK Aequorin cells, Maxcyte transient transfection; conditions: GPR139 Agonist Activity; for EC50: read-out: EC50; for Averaged Max % Response (±St. Dev.): activity relative to known control
T1 sequence (Q6DWJ6 1-353): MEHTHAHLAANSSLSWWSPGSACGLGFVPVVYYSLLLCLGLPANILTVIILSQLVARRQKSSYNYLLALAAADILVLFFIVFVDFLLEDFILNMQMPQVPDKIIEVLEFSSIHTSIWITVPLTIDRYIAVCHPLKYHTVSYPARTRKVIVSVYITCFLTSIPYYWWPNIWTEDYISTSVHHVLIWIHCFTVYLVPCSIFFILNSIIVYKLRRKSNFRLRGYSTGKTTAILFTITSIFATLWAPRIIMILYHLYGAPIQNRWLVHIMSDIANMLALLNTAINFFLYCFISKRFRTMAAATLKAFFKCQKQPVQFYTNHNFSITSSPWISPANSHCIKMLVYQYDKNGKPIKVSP
Protocol: GPR activity was assessed using a calcium detection assay. […] Negative control samples were treated with DMSO. […] Intracellular calcium was measured using Calcium 5.

[1] = Homo sapiens, HEK293, HEK Agonist Activity section of Table 4 (parental HEK counterscreen)
[2] = values printed in E-notation without unit
[3] = HEK Agonist Activity section of Table 4 (parental HEK counterscreen)

Structure (SMILES): Cc1ccc(NC(=O)NCCCc2ccccc2)cc1 [SR-01000299370]
Lipophilic Efficiency (logD) (parental HEK cells; HEK Agonist Activity section): 0.78
Lipophilic Efficiency (logP) (parental HEK cells; HEK Agonist Activity section): 0.78
Averaged Max % Response (±St. Dev.) (parental HEK cells; HEK Agonist Activity section): −5.05 ± 8.64%
EC50 (parental HEK cells; [1]): > 14100 nM
Efficiency Ligand (GPR139): 0.38
Hill Slope (GPR139): 0.74
Lipophilic Efficiency (logD) (GPR139): 1.36
Lipophilic Efficiency (logP) (GPR139): 1.36
EC50 (GPR139; HEK-GPR139 cells): 3700 nM
Averaged Max % Response (±St. Dev.) (GPR139): 68.10 ± 8.73%

Structure (SMILES): C=C(CCC)c1ccc(CCC2=NNC(c3ccccc3)N2C)cc1 (centres unmarked) [SR-01000299610]
Lipophilic Efficiency (logD) (parental HEK cells; HEK Agonist Activity section): 2.82
Lipophilic Efficiency (logP) (parental HEK cells; HEK Agonist Activity section): 2.82
Averaged Max % Response (±St. Dev.) (parental HEK cells; HEK Agonist Activity section): −12.89 ± 6.99%
EC50 (parental HEK cells; [1]): > 14100 nM
Efficiency Ligand (GPR139): 0.33
Hill Slope (GPR139): 0.79
Lipophilic Efficiency (logD) (GPR139): 3.88
Lipophilic Efficiency (logP) (GPR139): 3.88
Averaged Max % Response (±St. Dev.) (GPR139): 71.34 ± 19.37%

Structure (SMILES): O=C(Cn1ccc([N+](=O)[O-])n1)NCCc1ccc(Cl)cc1 [SR-01000299915]
Lipophilic Efficiency (logD) (parental HEK cells; HEK Agonist Activity): 2.40
Lipophilic Efficiency (logP) (parental HEK cells; HEK Agonist Activity): 2.40
Averaged Max % Response (±St. Dev.) (parental HEK cells; HEK Agonist Activity): 2.39 ± 2.18%
EC50 (parental HEK cells; Homo sapiens, HEK293, HEK Agonist Activity, parental non-transfected HEK cells): > 14100 nM
Averaged Max % Response (±St. Dev.) (GPR139): 99.72 ± 18.10%
Lipophilic Efficiency (logD) (GPR139; based on logD): 5.86
Lipophilic Efficiency (logP) (GPR139; based on logP): 5.86
Hill Slope (GPR139; fitted dose-response curve): 1.13
Efficiency Ligand (GPR139; ligand efficiency): 0.55
EC50 (GPR139; [2]): 5 nM

Structure (SMILES): Cc1cc(C)c2c(CC(=O)NNC(=O)COc3ccccc3)coc2c1 [SR-01000301649]
Lipophilic Efficiency (logD) (parental HEK cells; HEK Agonist Activity section): 1.94
Lipophilic Efficiency (logP) (parental HEK cells; HEK Agonist Activity section): 1.93
EC50 (parental HEK cells; [3]): > 14100 nM
Averaged Max % Response (±St. Dev.) (parental HEK cells; HEK Agonist Activity section): 14.38 ± 10.96%
Averaged Max % Response (±St. Dev.) (GPR139): 93.20 ± 6.78%
Lipophilic Efficiency (logD) (GPR139; based on logD): 3.92
Lipophilic Efficiency (logP) (GPR139; based on logP): 3.92
Hill Slope (GPR139; fitted dose-response curve): 0.91
Efficiency Ligand (GPR139; ligand efficiency): 0.37
EC50 (GPR139; [2]): 145 nM

Second part, led by results:

Lipophilic Efficiency (logD) (parental HEK cells; HEK Agonist Activity section): 1.74
Lipophilic Efficiency (logP) (parental HEK cells; HEK Agonist Activity section): 1.67
Averaged Max % Response (±St. Dev.) (GPR139): 94.36 ± 3.49%
Lipophilic Efficiency (logD) (GPR139; based on logD): 3.88
Lipophilic Efficiency (logP) (GPR139; based on logP): 3.82
Hill Slope (GPR139; fitted dose-response curve): 0.63
Efficiency Ligand (GPR139; ligand efficiency): 0.41
Structure (SMILES): Cc1ccc(NC(=O)NNC(=O)COc2ccc(Cl)cc2)c(C)c1 [SR-01000309617]
Averaged Max % Response (±St. Dev.) (parental HEK cells; HEK Agonist Activity section): −3.26 ± 4.40%
EC50 (parental HEK cells; [1]): > 14400 nM

Lipophilic Efficiency (logD) (parental HEK cells; HEK Agonist Activity section): 3.00
Lipophilic Efficiency (logP) (parental HEK cells; HEK Agonist Activity section): 3.00
Efficiency Ligand (GPR139): 0.41
Hill Slope (GPR139): 0.70
Lipophilic Efficiency (logD) (GPR139): 4.32
Lipophilic Efficiency (logP) (GPR139): 4.32
EC50 (GPR139; HEK-GPR139 cells): 672 nM
Averaged Max % Response (±St. Dev.) (GPR139): 89.42 ± 11.78%
Structure (SMILES): CC1=NNC(=O)C1CC(=O)N/N=C/c1c(Cl)cccc1Cl (centres unmarked) [SR-01000310664]
EC50 (parental HEK cells; [3]): > 14100 nM
Averaged Max % Response (±St. Dev.) (parental HEK cells; HEK Agonist Activity section): 28.78 ± 5.42%

Lipophilic Efficiency (logD) (parental HEK cells; HEK Agonist Activity section): 1.78
Lipophilic Efficiency (logP) (parental HEK cells; HEK Agonist Activity section): 1.78
Efficiency Ligand (GPR139): 0.56
Hill Slope (GPR139): 0.71
Lipophilic Efficiency (logD) (GPR139): 3.32
Lipophilic Efficiency (logP) (GPR139): 3.32
EC50 (GPR139; HEK-GPR139 cells): 407 nM
Averaged Max % Response (±St. Dev.) (GPR139): 80.08 ± 5.83%
Structure (SMILES): NC1=NC(=O)/C(=C\c2ccc(Cl)cc2Cl)S1 [SR-01000310833]
EC50 (parental HEK cells; [3]): > 14100 nM
Averaged Max % Response (±St. Dev.) (parental HEK cells; HEK Agonist Activity section): 13.95 ± 0.93%

Lipophilic Efficiency (logD) (parental HEK cells; HEK Agonist Activity section): 1.69
Lipophilic Efficiency (logP) (parental HEK cells; HEK Agonist Activity section): 1.66
Efficiency Ligand (GPR139): 0.30
Hill Slope (GPR139): 1.91
Lipophilic Efficiency (logD) (GPR139): 2.77
Lipophilic Efficiency (logP) (GPR139): 2.74
EC50 (GPR139; HEK-GPR139 cells): 1200 nM
Averaged Max % Response (±St. Dev.) (GPR139): 81.17 ± 17.61%
Structure (SMILES): COc1ccc(CC(=O)NNC(=O)C(C)Oc2ccc(Cl)cc2Cl)cc1OC (centres unmarked) [SR-01000312779]
Averaged Max % Response (±St. Dev.) (parental HEK cells; HEK Agonist Activity section): 13.34 ± 1.65%
EC50 (parental HEK cells; [1]): > 14100 nM

Lipophilic Efficiency (logD) (parental HEK cells; HEK Agonist Activity section): 1.40
Lipophilic Efficiency (logP) (parental HEK cells; HEK Agonist Activity section): 1.39
Efficiency Ligand (GPR139): 0.36
Hill Slope (GPR139): 1.19
Lipophilic Efficiency (logD) (GPR139): 2.69
Lipophilic Efficiency (logP) (GPR139): 2.69
EC50 (GPR139; HEK-GPR139 cells): 719 nM
Averaged Max % Response (±St. Dev.) (GPR139): 90.41 ± 15.26%
Structure (SMILES): Cc1ccc(CCC(=O)NNC(=O)CCc2ccccc2)c(Br)c1 [SR-01000313193]
Averaged Max % Response (±St. Dev.) (parental HEK cells; HEK Agonist Activity section): 8.61 ± 6.03%
EC50 (parental HEK cells; [1]): > 14100 nM

Lipophilic Efficiency (logD) (parental HEK cells; HEK Agonist Activity section): 1.45
Lipophilic Efficiency (logP) (parental HEK cells; HEK Agonist Activity section): 1.38
Efficiency Ligand (GPR139): 0.28
Hill Slope (GPR139): 1.29
Lipophilic Efficiency (logD) (GPR139): 3.07
Lipophilic Efficiency (logP) (GPR139): 3.01
EC50 (GPR139; HEK-GPR139 cells): 332 nM
Averaged Max % Response (±St. Dev.) (GPR139): 84.05 ± 13.31%
Structure (SMILES): O=C(NCCCn1ccnc1)c1cc2nc3c(c(C(F)(F)F)n2n1)CCc1ccccc1-3 [SR-01000313440]
Averaged Max % Response (±St. Dev.) (parental HEK cells; HEK Agonist Activity section): 0.31 ± 4.15%
EC50 (parental HEK cells; [1]): > 14100 nM
